Data reported in ChEMBL document CHEMBL1821715, “Synthesis, characterization and pharmacological activity of 4-{[1-substituted aminomethyl-4-arylideneamino-5-sulfanyl-4,5-dihydro-1H-1,2,4-triazol-3-yl]methyl}-2H-1,4-benzothiazin-3(4H)-ones” (2011).

Columns and labels:
Format in all cases: functional
Rattus norvegicus [1] = assay: Antiinflammatory activity in Wistar albino rat assessed as reduction of carrageenan-induced paw volume at 20 mg/kg, po administered 30 mins before carrageenan challenge measured after 0.5 hr relative to control; set-up: scale not given: the % may be the effect or the level left
Rattus norvegicus [2] = assay: Antiinflammatory activity in Wistar albino rat assessed as reduction of carrageenan-induced paw volume at 20 mg/kg, po administered 30 mins before carrageenan challenge measured after 1 hr relative to control; set-up: scale not given: the % may be the effect or the level left
Rattus norvegicus [3] = assay: Antiinflammatory activity in Wistar albino rat assessed as reduction of carrageenan-induced paw volume at 20 mg/kg, po administered 30 mins before carrageenan challenge measured after 2 hrs relative to control; set-up: scale not given: the % may be the effect or the level left
Rattus norvegicus [4] = assay: Analgesic activity in Wistar albino rat assessed as reaction time required for tail flicking at 20 mg/kg after 30 mins by tail-flick method relative to control
Rattus norvegicus [5] = assay: Analgesic activity in Wistar albino rat assessed as reaction time required for tail flicking at 20 mg/kg after 60 mins by tail-flick method relative to control
Rattus norvegicus [6] = assay: Analgesic activity in Wistar albino rat assessed as reaction time required for tail flicking at 20 mg/kg after 90 mins by tail-flick method relative to control

## O=C(O)CN1C(=O)CSc2ccccc21
Rattus norvegicus [1]
  Activity: 38.51%
Rattus norvegicus [2]
  Activity: 30.07%
Rattus norvegicus [3]
  Activity: 27.93%
Rattus norvegicus [4]
  Time: 5.775 s
Rattus norvegicus [5]
  Time: 6.5 s
Rattus norvegicus [6]
  Time: 6.875 s

## CN1CCN(Cn2nc(CN3C(=O)CSc4ccccc43)n(/N=C/c3ccccc3)c2=S)CC1
Rattus norvegicus [1]
  Activity: 8.1%
Rattus norvegicus [2]
  Activity: 9.8%
Rattus norvegicus [3]
  Activity: 10.39%
Rattus norvegicus [4]
  Time: 3.5 s
Rattus norvegicus [5]
  Time: 4.3 s
Rattus norvegicus [6]
  Time: 4.225 s

## O=C1CSc2ccccc2N1Cc1nn(CN2CCOCC2)c(=S)n1/N=C/c1ccccc1
Rattus norvegicus [1]
  Activity: 5.4%
Rattus norvegicus [2]
  Activity: 10.13%
Rattus norvegicus [3]
  Activity: 10.39%
Rattus norvegicus [4]
  Time: 3.175 s
Rattus norvegicus [5]
  Time: 3.375 s
Rattus norvegicus [6]
  Time: 3.4 s

## O=C1CSc2ccccc2N1Cc1nn(CN2CCCCC2)c(=S)n1/N=C/c1ccccc1
Rattus norvegicus [1]
  Activity: 40.21%
Rattus norvegicus [2]
  Activity: 41.18%
Rattus norvegicus [3]
  Activity: 41.23%
Rattus norvegicus [4]
  Time: 3.925 s
Rattus norvegicus [5]
  Time: 5.3 s
Rattus norvegicus [6]
  Time: 5.5 s

## CN1CCN(Cn2nc(CN3C(=O)CSc4ccccc43)n(/N=C/c3ccc([N+](=O)[O-])cc3)c2=S)CC1
Rattus norvegicus [1]
  Activity: 33.11%
Rattus norvegicus [2]
  Activity: 40.53%
Rattus norvegicus [3]
  Activity: 37.34%
Rattus norvegicus [4]
  Time: 5.475 s
Rattus norvegicus [5]
  Time: 5.975 s
Rattus norvegicus [6]
  Time: 6.05 s

## O=C1CSc2ccccc2N1Cc1nn(CN2CCOCC2)c(=S)n1/N=C/c1ccc([N+](=O)[O-])cc1
Rattus norvegicus [1]
  Activity: 37.84%
Rattus norvegicus [2]
  Activity: 42.16%
Rattus norvegicus [3]
  Activity: 31.82%
Rattus norvegicus [4]
  Time: 5.425 s
Rattus norvegicus [5]
  Time: 6.05 s
Rattus norvegicus [6]
  Time: 6.025 s

## O=C1CSc2ccccc2N1Cc1nn(CN2CCCCC2)c(=S)n1/N=C/c1ccc([N+](=O)[O-])cc1
Rattus norvegicus [1]
  Activity: 52.71%
Rattus norvegicus [2]
  Activity: 55.56%
Rattus norvegicus [3]
  Activity: 58.77%
Rattus norvegicus [4]
  Time: 5.1 s
Rattus norvegicus [5]
  Time: 5.3 s
Rattus norvegicus [6]
  Time: 4.875 s

## CN1CCN(Cn2nc(CN3C(=O)CSc4ccccc43)n(/N=C/c3ccc(Cl)cc3)c2=S)CC1
Rattus norvegicus [1]
  Activity: 38.51%
Rattus norvegicus [2]
  Activity: 44.12%
Rattus norvegicus [3]
  Activity: 42.86%
Rattus norvegicus [4]
  Time: 4.575 s
Rattus norvegicus [5]
  Time: 5.375 s
Rattus norvegicus [6]
  Time: 5 s

## O=C1CSc2ccccc2N1Cc1nn(CN2CCOCC2)c(=S)n1/N=C/c1ccc(Cl)cc1
Rattus norvegicus [1]
  Activity: 28.04%
Rattus norvegicus [2]
  Activity: 32.35%
Rattus norvegicus [3]
  Activity: 29.55%
Rattus norvegicus [4]
  Time: 4.8 s
Rattus norvegicus [5]
  Time: 4.875 s
Rattus norvegicus [6]
  Time: 4.075 s

## O=C1CSc2ccccc2N1Cc1nn(CN2CCOCC2)c(=S)n1/N=C/c1ccc(O)cc1
Rattus norvegicus [1]
  Activity: 53.38%
Rattus norvegicus [2]
  Activity: 45.1%
Rattus norvegicus [3]
  Activity: 38.97%
Rattus norvegicus [4]
  Time: 4.3 s
Rattus norvegicus [5]
  Time: 5 s
Rattus norvegicus [6]
  Time: 6 s

## CC(C)=CCN1CC[C@]2(C)c3cc(O)ccc3C[C@H]1[C@H]2C [(+)-PENTAZOCINE]
Rattus norvegicus [4]
  Time: 6.4 s
Rattus norvegicus [5]
  Time: 7.175 s
Rattus norvegicus [6]
  Time: 7.45 s

## COc1ccc2c(c1)c(CC(=O)O)c(C)n2C(=O)c1ccc(Cl)cc1 [INDOMETHACIN]
Rattus norvegicus [1]
  Activity: 66.89%
Rattus norvegicus [2]
  Activity: 70.26%
Rattus norvegicus [3]
  Activity: 69.81%
